In PMC9457941, “Synthesis and Kinase Inhibitory Potencies of Pyrazolo[3,4-g]isoquinolines” (Molecules, 2022):

What follows are compounds tested against T1, Haspin-kd (human, kinase domain, amino acids 470–798) (Homo sapiens, UniProt Q8TF76) (assay: ADP-Glo kinase inhibition assay, Haspin). Settings: 10 μM ATP, duplicate.
T1 construct: Haspin-kd (human, kinase domain, amino acids 470–798, recombinant, expressed in bacteria); host or cells: bacteria
T1 sequence (Q8TF76 470-798): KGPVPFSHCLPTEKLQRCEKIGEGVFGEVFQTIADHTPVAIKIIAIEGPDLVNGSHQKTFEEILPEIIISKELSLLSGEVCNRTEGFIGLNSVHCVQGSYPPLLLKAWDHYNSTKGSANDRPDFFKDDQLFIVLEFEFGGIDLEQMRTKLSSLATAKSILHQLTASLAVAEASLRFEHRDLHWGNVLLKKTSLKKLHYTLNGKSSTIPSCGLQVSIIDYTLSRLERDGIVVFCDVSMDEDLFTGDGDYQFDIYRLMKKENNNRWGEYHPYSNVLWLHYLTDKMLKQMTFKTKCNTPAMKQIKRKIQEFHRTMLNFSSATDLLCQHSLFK
Format: biochemical
Method: (§1) Kinase enzymatic activities were assayed in 384 well plates using the ADP-GloTM assay kit (Promega, Madison, WI, USA) according to the manufacturer’s guidance. Briefly, the reactions were carried out in a final volume of 6 μL for 30 min at 30 °C in an appropriate kinase buffer (10 mM MgCl2, 1 mM EGTA, 1 mM DTT, 25 mM Tris-HCl pH 7.5, 50 μg/mL heparin), with either protein or peptide as substrate in the presence of 10 μM ATP (40 mM Tris pH 7.5, 20 mM MgCl2 and 0.1 mg/mL of BSA). Afterward, 6 μL of ADP-GloTM Kinase Reagent was added to stop the kinase reaction. After an incubation time of 50 min at room temperature (RT), 12 μL of Kinase Detection Reagent was added for 1 h at RT. The transmitted signal was measured using the Envision (Perkin Elmer, Waltham, MA, USA) microplate luminometer and expressed in relative light unit (RLU). In order to determine the half maximal inhibitory concentration (IC50), the assays were performed in duplicate in the absence or presence of increasing doses of the tested compounds. GraphPad Prism6 software (GraphPad Software, San Diego, CA, USA) was used to fit dose–response curves and to determine the IC50 values. Kinase activities are expressed in the percentage of maximal activity, i.e., measured in the absence of an inhibitor. Peptide substrates were obtained from Proteogenix (Schiltigheim, France).

SMILES	IC50
CCn1ncc2c(C)c3cnccc3c([N+](=O)[O-])c21 [Compound 3a, 1-Ethyl-4-methyl-9-nitro-1H-pyrazolo[3,4-g]isoquinoline]	167 nM
CCCc1c2cnccc2c([N+](=O)[O-])c2c1cnn2CC [Compound 3c, 1-Ethyl-9-nitro-4-propyl-1H-pyrazolo[3,4-g]isoquinoline]	497 nM

Same assay, conditions: read-out: Haspin % residual activity at 1 μM

SMILES	remaining activity at 1 µM
CCn1ncc2c(C)c3cnccc3c([N+](=O)[O-])c21 [Compound 3a, 1-Ethyl-4-methyl-9-nitro-1H-pyrazolo[3,4-g]isoquinoline]	20%
CCCc1c2cnccc2c([N+](=O)[O-])c2c1cnn2CC [Compound 3c, 1-Ethyl-9-nitro-4-propyl-1H-pyrazolo[3,4-g]isoquinoline]	25%

Same assay, conditions: read-out: Haspin % residual activity at 10 μM

SMILES	remaining activity at 10 µM
CCn1ncc2c(C)c3cnccc3c([N+](=O)[O-])c21 [Compound 3a, 1-Ethyl-4-methyl-9-nitro-1H-pyrazolo[3,4-g]isoquinoline]	8%
CCCc1c2cnccc2c([N+](=O)[O-])c2c1cnn2CC [Compound 3c, 1-Ethyl-9-nitro-4-propyl-1H-pyrazolo[3,4-g]isoquinoline]	17%

These compounds were tested against T2, MmCLK1 (Mus musculus, UniProt P22518) (assay: ADP-Glo kinase inhibition assay, CLK1). Settings: 10 μM ATP, duplicate; read-out: CLK1 IC50.
T2 construct: host or cells: bacteria
T2 sequence (P22518 whole entry): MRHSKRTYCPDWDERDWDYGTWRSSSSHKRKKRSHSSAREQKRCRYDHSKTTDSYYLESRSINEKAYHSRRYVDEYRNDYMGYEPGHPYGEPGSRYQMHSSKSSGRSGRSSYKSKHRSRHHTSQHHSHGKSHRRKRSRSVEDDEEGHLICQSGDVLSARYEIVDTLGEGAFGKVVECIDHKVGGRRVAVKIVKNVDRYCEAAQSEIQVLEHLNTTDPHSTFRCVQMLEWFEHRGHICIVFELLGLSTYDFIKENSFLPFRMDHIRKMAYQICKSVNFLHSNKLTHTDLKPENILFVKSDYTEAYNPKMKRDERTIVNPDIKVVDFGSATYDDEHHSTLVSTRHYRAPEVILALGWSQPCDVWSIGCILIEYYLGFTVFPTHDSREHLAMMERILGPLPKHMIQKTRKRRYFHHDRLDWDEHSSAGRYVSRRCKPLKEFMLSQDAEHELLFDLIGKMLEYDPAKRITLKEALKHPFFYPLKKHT
Format: biochemical
Method: as §1
(§2) The following protein kinases were analyzed in this study: CDK5/p25 (human, recombinant, expressed in bacteria) was assayed with 0.8 μg/μL of histone H1 as substrate; CDK9/CyclinT (human, recombinant, expressed by baculovirus in Sf9 insect cells) were assayed with 0.27 μg/μL of the following peptide: […], as substrate; CK1ε (human, recombinant, expressed by baculovirus in Sf9 insect cells) was assayed with 0.022 μg/μL of the following peptide: […]pAYSITA (“Sp” stands for phosphorylated serine) as CK1-specific substrate; GSK3β (human, recombinant, expressed by baculovirus in Sf9 insect cells) were assayed with 0.010 μg/μL of GS-1 peptide, a GSK-3-selective substrate ([…]pEDEEE); Haspin-kd (human, kinase domain, amino acids 470–798, recombinant, expressed in bacteria) was assayed with 0.007 μg/μL of histone H3 (1–21) peptide ([…]) as substrate; Pim-1 (human proto-oncogene, recombinant, expressed in bacteria) was assayed with 0.8 μg/μL of histone H1 as substrate; MmCLK1 (from Mus musculus, recombinant, expressed in bacteria) was assayed with 0.027 μg/μL of the following peptide: […] as substrate; RnDYRK1A-kd (Rattus norvegicus, amino acids 1–499 including the kinase domain, recombinant, expressed in bacteria, DNA vector kindly provided by Dr. W. Becker, Aachen, Germany) was assayed with 0.033 μg/μL of the following peptide: […] as substrate.

SMILES	IC50
CCn1ncc2c(C)c3cnccc3c([N+](=O)[O-])c21 [Compound 3a, 1-Ethyl-4-methyl-9-nitro-1H-pyrazolo[3,4-g]isoquinoline]	101 nM
CCCc1c2cnccc2c([N+](=O)[O-])c2c1cnn2CC [Compound 3c, 1-Ethyl-9-nitro-4-propyl-1H-pyrazolo[3,4-g]isoquinoline]	363 nM

Same assay, conditions: read-out: CLK1 % residual activity at 1 μM

SMILES	remaining activity at 1 µM
CCn1ncc2c(C)c3cnccc3c([N+](=O)[O-])c21 [Compound 3a, 1-Ethyl-4-methyl-9-nitro-1H-pyrazolo[3,4-g]isoquinoline]	13%
CCCc1c2cnccc2c([N+](=O)[O-])c2c1cnn2CC [Compound 3c, 1-Ethyl-9-nitro-4-propyl-1H-pyrazolo[3,4-g]isoquinoline]	23%

Same assay, conditions: read-out: CLK1 % residual activity at 10 μM

SMILES	remaining activity at 10 µM
CCn1ncc2c(C)c3cnccc3c([N+](=O)[O-])c21 [Compound 3a, 1-Ethyl-4-methyl-9-nitro-1H-pyrazolo[3,4-g]isoquinoline]	0%
CCCc1c2cnccc2c([N+](=O)[O-])c2c1cnn2CC [Compound 3c, 1-Ethyl-9-nitro-4-propyl-1H-pyrazolo[3,4-g]isoquinoline]	4%

The compounds below were run against T3, RnDYRK1A-kd (Rattus norvegicus, UniProt Q63470) (assay: ADP-Glo kinase inhibition assay, DYRK1A). Settings: read-out: DYRK1A % residual activity at 1 μM.
T3 construct: RnDYRK1A-kd (Rattus norvegicus, amino acids 1–499 including the kinase domain, recombinant, expressed in bacteria); made in house; host or cells: bacteria
Format: biochemical
Method: as §1, §2

SMILES	remaining activity at 1 µM
CCn1ncc2c(C)c3cnccc3c([N+](=O)[O-])c21 [Compound 3a, 1-Ethyl-4-methyl-9-nitro-1H-pyrazolo[3,4-g]isoquinoline]	73%
CCCc1c2cnccc2c([N+](=O)[O-])c2c1cnn2CC [Compound 3c, 1-Ethyl-9-nitro-4-propyl-1H-pyrazolo[3,4-g]isoquinoline]	95%

Same assay, conditions: read-out: DYRK1A % residual activity at 10 μM

SMILES	remaining activity at 10 µM
CCn1ncc2c(C)c3cnccc3c([N+](=O)[O-])c21 [Compound 3a, 1-Ethyl-4-methyl-9-nitro-1H-pyrazolo[3,4-g]isoquinoline]	13%
CCCc1c2cnccc2c([N+](=O)[O-])c2c1cnn2CC [Compound 3c, 1-Ethyl-9-nitro-4-propyl-1H-pyrazolo[3,4-g]isoquinoline]	41%

These compounds were tested against T4, CDK9/CyclinT (Homo sapiens, UniProt P50750) (assay: ADP-Glo kinase inhibition assay, CDK9/CyclinT). Settings: 10 μM ATP, duplicate.
T4 construct: host or cells: Sf9 insect cells (baculovirus)
T4 sequence (O60563 whole entry): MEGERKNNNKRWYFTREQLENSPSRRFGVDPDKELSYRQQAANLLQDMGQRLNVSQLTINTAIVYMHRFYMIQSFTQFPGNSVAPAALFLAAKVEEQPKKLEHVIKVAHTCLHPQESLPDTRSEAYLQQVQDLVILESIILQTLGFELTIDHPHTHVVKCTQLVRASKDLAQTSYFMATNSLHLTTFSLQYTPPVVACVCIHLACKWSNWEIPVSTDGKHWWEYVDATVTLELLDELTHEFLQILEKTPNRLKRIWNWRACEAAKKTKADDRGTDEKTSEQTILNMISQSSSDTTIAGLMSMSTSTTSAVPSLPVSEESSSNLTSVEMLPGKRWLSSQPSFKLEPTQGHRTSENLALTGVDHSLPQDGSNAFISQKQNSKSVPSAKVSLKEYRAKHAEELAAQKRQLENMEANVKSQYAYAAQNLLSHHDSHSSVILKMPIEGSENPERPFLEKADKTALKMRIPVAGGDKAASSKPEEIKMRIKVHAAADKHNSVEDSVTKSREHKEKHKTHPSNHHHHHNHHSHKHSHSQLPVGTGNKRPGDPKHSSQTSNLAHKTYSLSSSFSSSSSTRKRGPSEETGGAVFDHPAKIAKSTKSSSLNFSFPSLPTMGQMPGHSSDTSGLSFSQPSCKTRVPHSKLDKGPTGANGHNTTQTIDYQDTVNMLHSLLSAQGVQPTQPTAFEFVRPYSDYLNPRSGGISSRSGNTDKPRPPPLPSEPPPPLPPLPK
T4 sequence (P50750 whole entry): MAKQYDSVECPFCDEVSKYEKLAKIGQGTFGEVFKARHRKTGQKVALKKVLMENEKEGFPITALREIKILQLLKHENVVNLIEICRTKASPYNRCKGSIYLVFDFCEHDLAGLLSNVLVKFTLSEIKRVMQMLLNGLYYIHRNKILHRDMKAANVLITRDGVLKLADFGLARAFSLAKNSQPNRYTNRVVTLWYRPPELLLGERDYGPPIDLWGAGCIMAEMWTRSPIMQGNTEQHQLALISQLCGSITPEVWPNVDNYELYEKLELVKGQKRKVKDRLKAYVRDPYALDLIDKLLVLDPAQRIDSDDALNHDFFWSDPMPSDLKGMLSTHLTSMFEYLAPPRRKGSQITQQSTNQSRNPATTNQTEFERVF
Format: biochemical
Method: as §1, §2

SMILES	IC50
CCn1ncc2c(C)c3cnccc3c([N+](=O)[O-])c21 [Compound 3a, 1-Ethyl-4-methyl-9-nitro-1H-pyrazolo[3,4-g]isoquinoline]	789 nM
CCCc1c2cnccc2c([N+](=O)[O-])c2c1cnn2CC [Compound 3c, 1-Ethyl-9-nitro-4-propyl-1H-pyrazolo[3,4-g]isoquinoline]	322 nM

Same assay, conditions: read-out: CDK9 % residual activity at 1 μM

SMILES	remaining activity at 1 µM
CCn1ncc2c(C)c3cnccc3c([N+](=O)[O-])c21 [Compound 3a, 1-Ethyl-4-methyl-9-nitro-1H-pyrazolo[3,4-g]isoquinoline]	43%
CCCc1c2cnccc2c([N+](=O)[O-])c2c1cnn2CC [Compound 3c, 1-Ethyl-9-nitro-4-propyl-1H-pyrazolo[3,4-g]isoquinoline]	18%

Same assay, conditions: read-out: CDK9 % residual activity at 10 μM

SMILES	remaining activity at 10 µM
CCn1ncc2c(C)c3cnccc3c([N+](=O)[O-])c21 [Compound 3a, 1-Ethyl-4-methyl-9-nitro-1H-pyrazolo[3,4-g]isoquinoline]	14%
CCCc1c2cnccc2c([N+](=O)[O-])c2c1cnn2CC [Compound 3c, 1-Ethyl-9-nitro-4-propyl-1H-pyrazolo[3,4-g]isoquinoline]	4%

What follows are compounds tested against T5, GSK3β (Homo sapiens, UniProt P49841) (assay: ADP-Glo kinase inhibition assay, GSK3β). Settings: 10 μM ATP, duplicate; read-out: GSK3 IC50.
T5 construct: host or cells: Sf9 insect cells (baculovirus)
T5 sequence (P49841 whole entry): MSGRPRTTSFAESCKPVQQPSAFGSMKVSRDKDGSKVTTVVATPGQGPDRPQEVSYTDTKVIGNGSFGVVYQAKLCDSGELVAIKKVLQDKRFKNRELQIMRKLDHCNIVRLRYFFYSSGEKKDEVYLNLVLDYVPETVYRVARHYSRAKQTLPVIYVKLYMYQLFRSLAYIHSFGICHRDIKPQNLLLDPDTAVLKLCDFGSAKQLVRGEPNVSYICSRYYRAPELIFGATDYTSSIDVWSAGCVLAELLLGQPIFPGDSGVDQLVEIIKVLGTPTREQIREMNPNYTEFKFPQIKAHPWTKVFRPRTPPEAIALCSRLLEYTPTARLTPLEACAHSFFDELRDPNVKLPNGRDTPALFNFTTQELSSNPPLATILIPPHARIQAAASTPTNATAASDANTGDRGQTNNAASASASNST
Format: biochemical
Method: as §1, §2

SMILES	IC50
CCn1ncc2c(C)c3cnccc3c([N+](=O)[O-])c21 [Compound 3a, 1-Ethyl-4-methyl-9-nitro-1H-pyrazolo[3,4-g]isoquinoline]	1080 nM
CCCc1c2cnccc2c([N+](=O)[O-])c2c1cnn2CC [Compound 3c, 1-Ethyl-9-nitro-4-propyl-1H-pyrazolo[3,4-g]isoquinoline]	218 nM

Same assay, conditions: read-out: GSK3 % residual activity at 1 μM

SMILES	remaining activity at 1 µM
CCn1ncc2c(C)c3cnccc3c([N+](=O)[O-])c21 [Compound 3a, 1-Ethyl-4-methyl-9-nitro-1H-pyrazolo[3,4-g]isoquinoline]	39%
CCCc1c2cnccc2c([N+](=O)[O-])c2c1cnn2CC [Compound 3c, 1-Ethyl-9-nitro-4-propyl-1H-pyrazolo[3,4-g]isoquinoline]	12%

Same assay, conditions: read-out: GSK3 % residual activity at 10 μM

SMILES	remaining activity at 10 µM
CCn1ncc2c(C)c3cnccc3c([N+](=O)[O-])c21 [Compound 3a, 1-Ethyl-4-methyl-9-nitro-1H-pyrazolo[3,4-g]isoquinoline]	9%
CCCc1c2cnccc2c([N+](=O)[O-])c2c1cnn2CC [Compound 3c, 1-Ethyl-9-nitro-4-propyl-1H-pyrazolo[3,4-g]isoquinoline]	5%

The compounds below were run against T6, CK1ε (Homo sapiens, UniProt P49674) (assay: ADP-Glo kinase inhibition assay, CK1ε). Settings: 1 μM compound, 10 μM ATP, duplicate; read-out: CK1 % residual activity at 1 μM.
T6 construct: host or cells: Sf9 insect cells (baculovirus)
T6 sequence (P49674 whole entry): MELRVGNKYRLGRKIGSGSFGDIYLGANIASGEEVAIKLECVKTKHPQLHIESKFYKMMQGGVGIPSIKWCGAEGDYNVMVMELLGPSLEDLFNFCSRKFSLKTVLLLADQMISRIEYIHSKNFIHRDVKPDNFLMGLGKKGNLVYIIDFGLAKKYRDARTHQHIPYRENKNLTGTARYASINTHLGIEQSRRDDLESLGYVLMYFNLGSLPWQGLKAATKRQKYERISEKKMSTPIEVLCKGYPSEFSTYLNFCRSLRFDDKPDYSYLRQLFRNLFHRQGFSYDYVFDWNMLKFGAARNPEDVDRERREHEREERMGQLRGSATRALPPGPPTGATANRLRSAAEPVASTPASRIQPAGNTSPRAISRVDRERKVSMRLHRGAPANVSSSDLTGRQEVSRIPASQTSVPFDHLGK
Format: biochemical
Method: as §1, §2

SMILES	remaining activity at 1 µM
CCn1ncc2c(C)c3cnccc3c([N+](=O)[O-])c21 [Compound 3a, 1-Ethyl-4-methyl-9-nitro-1H-pyrazolo[3,4-g]isoquinoline]	89%
CCCc1c2cnccc2c([N+](=O)[O-])c2c1cnn2CC [Compound 3c, 1-Ethyl-9-nitro-4-propyl-1H-pyrazolo[3,4-g]isoquinoline]	81%

Same assay, conditions: 10 μM compound, 10 μM ATP, duplicate; read-out: CK1 % residual activity at 10 μM

SMILES	remaining activity at 10 µM
CCn1ncc2c(C)c3cnccc3c([N+](=O)[O-])c21 [Compound 3a, 1-Ethyl-4-methyl-9-nitro-1H-pyrazolo[3,4-g]isoquinoline]	45%
CCCc1c2cnccc2c([N+](=O)[O-])c2c1cnn2CC [Compound 3c, 1-Ethyl-9-nitro-4-propyl-1H-pyrazolo[3,4-g]isoquinoline]	35%

These compounds were tested against T7, CDK5/p25 (Homo sapiens, UniProt Q00535) (assay: ADP-Glo kinase inhibition assay, CDK5/p25). Settings: read-out: CDK5 % residual activity at 1 μM.
T7 construct: host or cells: bacteria
T7 sequence (Q00535 whole entry): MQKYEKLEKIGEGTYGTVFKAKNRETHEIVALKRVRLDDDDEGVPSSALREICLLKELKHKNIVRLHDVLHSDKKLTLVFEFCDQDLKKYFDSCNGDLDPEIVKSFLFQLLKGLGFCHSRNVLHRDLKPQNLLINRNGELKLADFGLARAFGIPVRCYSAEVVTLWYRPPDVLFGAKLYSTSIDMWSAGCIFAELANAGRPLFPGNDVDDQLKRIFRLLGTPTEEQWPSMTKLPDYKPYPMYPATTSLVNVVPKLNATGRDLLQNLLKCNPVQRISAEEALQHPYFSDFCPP
T7 sequence (Q15078 99-307, further chain): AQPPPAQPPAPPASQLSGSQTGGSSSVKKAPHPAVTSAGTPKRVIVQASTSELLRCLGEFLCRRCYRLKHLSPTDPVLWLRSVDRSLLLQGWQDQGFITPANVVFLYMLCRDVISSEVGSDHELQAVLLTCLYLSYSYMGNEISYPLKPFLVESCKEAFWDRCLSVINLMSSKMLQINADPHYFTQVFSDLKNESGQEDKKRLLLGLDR
Format: biochemical
Method: as §1, §2

SMILES	remaining activity at 1 µM
CCn1ncc2c(C)c3cnccc3c([N+](=O)[O-])c21 [Compound 3a, 1-Ethyl-4-methyl-9-nitro-1H-pyrazolo[3,4-g]isoquinoline]	64%
CCCc1c2cnccc2c([N+](=O)[O-])c2c1cnn2CC [Compound 3c, 1-Ethyl-9-nitro-4-propyl-1H-pyrazolo[3,4-g]isoquinoline]	54%

Same assay, conditions: read-out: CDK5 % residual activity at 10 μM

SMILES	remaining activity at 10 µM
CCn1ncc2c(C)c3cnccc3c([N+](=O)[O-])c21 [Compound 3a, 1-Ethyl-4-methyl-9-nitro-1H-pyrazolo[3,4-g]isoquinoline]	35%
CCCc1c2cnccc2c([N+](=O)[O-])c2c1cnn2CC [Compound 3c, 1-Ethyl-9-nitro-4-propyl-1H-pyrazolo[3,4-g]isoquinoline]	10%

Each compound was assayed against T8, Pim-1 (Homo sapiens, UniProt P11309) (assay: ADP-Glo kinase inhibition assay, Pim-1). Settings: 1 μM compound, 10 μM ATP, duplicate; read-out: PIM1 % residual activity at 1 μM.
T8 construct: host or cells: bacteria
T8 sequence (P11309 whole entry): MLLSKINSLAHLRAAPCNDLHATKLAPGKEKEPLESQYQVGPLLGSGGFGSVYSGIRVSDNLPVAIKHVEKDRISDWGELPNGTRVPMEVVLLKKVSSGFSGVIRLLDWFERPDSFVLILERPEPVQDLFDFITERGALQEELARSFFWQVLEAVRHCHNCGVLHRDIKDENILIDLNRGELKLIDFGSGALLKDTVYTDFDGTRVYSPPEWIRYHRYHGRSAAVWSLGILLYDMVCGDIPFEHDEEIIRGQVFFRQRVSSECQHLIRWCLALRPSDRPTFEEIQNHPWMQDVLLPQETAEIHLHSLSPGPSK
Format: biochemical
Method: as §1, §2

SMILES	remaining activity at 1 µM
CCn1ncc2c(C)c3cnccc3c([N+](=O)[O-])c21 [Compound 3a, 1-Ethyl-4-methyl-9-nitro-1H-pyrazolo[3,4-g]isoquinoline]	100%
CCCc1c2cnccc2c([N+](=O)[O-])c2c1cnn2CC [Compound 3c, 1-Ethyl-9-nitro-4-propyl-1H-pyrazolo[3,4-g]isoquinoline]	86%

Same assay, conditions: 10 μM compound, 10 μM ATP, duplicate; read-out: PIM1 % residual activity at 10 μM

SMILES	remaining activity at 10 µM
CCn1ncc2c(C)c3cnccc3c([N+](=O)[O-])c21 [Compound 3a, 1-Ethyl-4-methyl-9-nitro-1H-pyrazolo[3,4-g]isoquinoline]	97%
CCCc1c2cnccc2c([N+](=O)[O-])c2c1cnn2CC [Compound 3c, 1-Ethyl-9-nitro-4-propyl-1H-pyrazolo[3,4-g]isoquinoline]	88%
